Results taken from US20080113956A1, “Substituted Porphyrins” (priority 1997, published 2008).
Where two headings read alike, the source gives them in different places.

Columns and labels:
[1] = tested on: isolated, perfused mouse liver; test: Isolated, perfused mouse liver, global ischemia/reperfusion injury; details: 10 μm in perfusate
Experimental: The ability of Mn TE-2-PyP to attenuate injury associated with 60 minutes of global ischemia followed by 90 minutes of reperfusion was assessed in an isolated, perfused mouse liver model. Excised livers were perfused with a buffered salt solution for 15 minutes after which the metalloporphyrin was introduced into the perfusate and the liver perfused in a recirculating system for an additional 15 minutes. The livers were then rendered globally ischemic under normal thermic conditions for 60 minutes. Following the ischemic period the livers were perfused for 90 minutes with perfusate supplemented with 10 μm Mn TE-2-PyP. In this model the ischemia/reperfused livers have a marked release of hepatocellular enzymes, aspartate transaminase, alanine transaminase, and lactate dehydrogenase during the first 2½ minutes of reperfusion. This is followed by a progressive release of hepatocellular enzymes indicating hepatocellular injury over the 90 minute perfusion period. […] At the end of the experiments liver […]. […] They remain firm and with a normal texture to gross morphologic examination.

lung injury = test: Bronchopulmonary dysplasia model: premature neonatal baboon in 100% oxygen; assay type: in vivo
Excerpt: Neonatal baboons were delivered prematurely by Caesarian section and then treated either with 100% oxygen or only sufficient PRN FIO2 to maintain adequate arterial oxygenation. To establish the model, thirteen 100% oxygen treated animals and twelve PRN control animals were studied. Treatment with 100% oxygen results in extensive lung injury manifested by days 9 or 10 of exposure and characterized by delayed alveolarization, lung parenchymal inflammation, and poor oxygenation. This is characteristic of the human disease, bronchopulmonary dysplasia and is thought to be mediated, at least in part, by oxidative stress on the developing neonatal lung. In a first trial of Mn TE-2-PyP, a neonatal baboon was delivered at 140 days gestation and placed in 100% oxygen. The animal received 0.5 mg/kg/24 hr Mn TE-2-PyP qd given i.v. in a continuous infusion over the entire 10 day study period.

DNA = test: SOD activity in vitro in the presence of DNA (DNA interaction); assay type: biochemical
Excerpt: The “ortho effect” also decreases the toxicity. It is well known that porphyrins, and particularly cationic porphyrins, interact with DNA and can act as DNA cleavers. This fact can be an issue in the use of metallo-porphyrins as anti-tumor drugs. The present mimetics avoid this interaction.
In order to maximize the decrease in toxicity due to interaction with DNA, two derivatives of the ortho compound have been prepared which carry four ethyl or four butyl groups (“4” and “5”, respectively).

[2] = literature comparators, cited from earlier work
rat brain homogenates = test: Iron/ascorbate mediated lipid peroxidation of rat brain homogenates (TBARS); assay type: biochemical; details: for IC50: rat brain homogenate, 30 minutes incubation with iron and ascorbate, TBARS
Experimental: Frozen adult Sprague-Dawley rat brains (Pel-Freez, Rogers, Ark.) were homogenized with a polytron (Turrax T25, Germany) in 5 volumes of ice cold 50 mM potassium phosphate at pH 7.4. Homogenate protein concentration was determined with the Coomassie Plus protein assay (Pierce, Rockford, Ill.) using bovine serum albumin as a standard. The homogenate volume was adjusted with buffer to give a final protein concentration of 10 mg/ml and frozen as aliquots at […].
Rat brain homogenates (2 mg protein) were incubated with varying concentrations of antioxidant at 37° C. for 15 minutes. Oxidation of the rat brain homogenate was initiated by the addition of 0.1 ml of a freshly prepared anaerobic stock solution containing iron(II) chloride (0.25 mM) and ascorbate (1 mM) as previously reported (Braughler et al, J. Biol. Chem. 262:10438 (1987)). Samples (final volume 1 ml) were placed in a shaking water bath at 37° C. for 30 minutes. The reactions were stopped by the addition of 0.1 ml of a stock butylated hydroxytoluene (60 mM) solution in ethanol.
The concentration of thiobarbituric acid reactive species (TBARS) in rat brain homogenates was used as a index of lipid peroxidation (Bernhem et al, J. Biol. Chem. 174:257 (1948); Witz et al, J. Free Rad. Biol. Med. 2:33 (1986); Kikugawa et al, Anal. Biochem. 202:249 (1992); Jentzsch et al, Free Rad. Biol. Med. 20P251 (1996)). Malondialdehyde standards were obtained by adding 8.2 μl of 1,1,3,3-tetramethoxypropane in 10 ml of 0.01 M HCl and mixing for 10 minutes at room temperature. This stock was further diluted in water to give standards that ranged from 0.25 to 25 μM. Samples or standards (200 μl) were acidified with 200 μl of 0.2 M phosphoric acid in 1.5 ml locking microfuge tubes. The color reaction was initiated by the addition of 25 μl of a 0.11M thiobarbituric acid solution and samples were placed in a 90° C. heating block for 45 minutes. TBARS were extracted with 0.5 ml of n-butanol by vortexing samples for 3 minute and chilling on ice for 1 minute. The samples were then centrifuged at 12,000×g for 3 minutes, 150 μl aliquots of the n-butanol phase were placed in each well of a 96-well plate and read at 535 nm in a Thermomax platereader (Molecular Devices, Sunnyvale, Calif.) at 25° C. Sample absorbencies were converted to MDA equivalencies (μM) by extrapolation from the MDA standard curve. None of the antioxidants at concentrations employed in these studies affected the reaction of MDA standards with thiobarbituric acid and reactions without TBA were used as subtraction blanks.
Data were presented as their means ±SE. The inhibitory concentration of antioxidants that decreased the degree of lipid peroxidation by 50% (IC50) and respective 95% confidence intervals (CI) were determined by fitting a sigmoidal curve with variable slope to the data (GraphPad Prizm, San Diego, Calif.).

airway hyperreactivity = test: Airway hyperreactivity to methacholine in ovalbumin sensitized mice; assay type: in vivo, mouse; details: intratracheal 2 μg daily for 4 days, methacholine 20, 30 and 40 mg/ml
Experimental: Mice were sensitized by intraperitoneal injection of ovalbumin twice, 14 days apart. Fourteen days after the second i.p. injection they were challenged with aerosolized ovalbumin daily for three days. Forty-eight hours after the third inhalation of ovalbumin they were given a 1 minute methacholine challenge and airway hyperreactivity followed using a Buxco body plethysmograph. Significant increases in airway resistance as measured by the PENH index occurred at doses of 20, 30 and 40 mg/ml of methacholine. […] This dose of in TM-2-PyP is equivalent to 0.8 mg/kg whole body dose.

Compound	attenuation of liver injury ([1]; 60 minutes global ischemia, 90 minutes reperfusion)	acute hepatocellular enzyme release ([1]; first 2½ minutes of reperfusion)	progressive hepatocellular enzyme release ([1]; over the 90 minute perfusion period)	lung pathology: inflammation (lung injury; 0.5 mg/kg/24 hr i.v., 10 days)	clinical decompensation of the lungs (lung injury; days 9 and 10, 0.5 mg/kg/24 hr i.v.)	oxygenation index (lung injury; neonatal baboon, 100% oxygen, 0.5 mg/kg/24 hr i.v. continuous infusion, 10 days)	lung pathology: lung injury (lung injury; vs prior animals treated with 100% oxygen)	toxicity due to interaction with DNA, comparison between ortho derivatives (DNA; Table 2 and FIG. 3)	kcat of comparison compounds [2]	IC50 (rat brain homogenates)	airway hyperreactivity (PENH index) (airway hyperreactivity)	kcat of comparison compounds ([2]; listed as MnTM-2-PyP^3−)	interaction with DNA (DNA; SOD activity in vitro in the presence of DNA)	increase in potency as lipid peroxidation inhibitor, ortho vs para (rat brain homogenates; MnTM-2-PyP vs MnTM-4-PyP)
CC[n+]1ccccc1-c1c2nc(c(-c3cccc[n+]3CC)c3ccc([n-]3)c(-c3cccc[n+]3CC)c3nc(c(-c4cccc[n+]4CC)c4ccc1[n-]4)C=C3)C=C2.[Mn+3] [MnTE-2-PyP^5+, manganic meso-tetrakis-(N-ethylpyridinium-2-yl)porphyrin]	highly efficacious in attenuating the liver injury	blocking virtually all	blocking progressive hepatocellular enzyme release	absence of inflammation	no evidence of clinical decompensation	marked improvement	marked decrease	significantly less toxic than the methyl derivative	–	–	–	–	–	–
manganese(III) 5,10,15,20-tetrakis(N-methylpyridyl)porphyrin [MnTM-4-PyP^5+, reference compound]	–	–	–	–	–	–	–	–	0.4 10^7 M^−1 s^−1	16 µM	–	–	–	–
manganese(III) 5,10,15,20-tetrakis(N-methylpyridyl)porphyrin [MnTM-2-PyP^5+]	–	–	–	–	–	–	–	–	–	1 µM	statistically significant reduction	6.0 10^7 M^−1 s^−1	greatly decreased	15 fold
